Biological target: T1, Abl(T315I) protein (Homo sapiens, UniProt P00519, T315I)
T1 construct: purchased Upstate 14-522
Assay: Abl T315I inhibitory activity (radiometric kinase assay)
Type: biochemical
Conditions: 1 μmol/L test compound
Protocol: In order to measure Abl T315I inhibitory activity, the following method was used: A reaction solution was prepared so that the final concentrations in a volume of 25 μL were 5 to 10 mU of Abl(T315I) protein (Upstate, catalog No. 14-522), 8 mmol/L of 3-morpholinopropane sulfonic acid (pH 7.0), 0.2 mmol/L of, EDTA, 50 μmol/L of EAIYAAPFAKKK, 10 mmol/L of Mg acetate, [γ-^33P-ATP] (500 cpm/pmol), 0.1% of dimethyl sulfoxide (DMSO), and 1 μmol/L of test compound, followed by enzyme reaction at room temperature for 40 minutes. The reaction was terminated with 5 μL of a 3% aqueous phosphoric acid solution, and the reaction solution was added to a P30 filter mat. Then, the filter was washed with a 75 mmol/L aqueous phosphoric acid solution three times and 100% methanol once, and then dried. Then, the radioactivity of the filter was measured.
Assuming that a measured value of an enzyme to which 0.1% of DMSO was added was 100%, and a measured value of a sample to which an enzyme was not added was 0%, the relative activity (%) of radioactivity of a sample to which the test compound was added was calculated, and a value obtained by subtracting the calculated value from 100 was considered as Abl T315I inhibitory activity (%) of the test compound.

Inhibition at 1 µM, ≥ 90%:
Nc1cc(/C=C/c2n[nH]c3ccccc23)ccc1OCCN1CCOCC1 [Compound 4]
CC(=O)N1CCN(C(=O)c2ccc(/C=C/c3n[nH]c4ccccc34)cc2)CC1 [Compound 6]
COCC(=O)N1CCN(C(=O)c2ccc(/C=C/c3n[nH]c4ccccc34)cc2)CC1 [Compound 7]
